# According to patent US20250262139A1, “POLYPEPTIDES AND METHODS FOR IMPROVING SKIN CONDITIONS” (INTERK PEPTIDE THERAPEUTICS LIMITED, priority 2020, published 2025):
# Where no end group is shown, it is not given here.
# Experiments:
# [1] = tested on: human primary melanocytes; experiment: melanin content after UVB, primary melanocytes; assay type: cell-based; conditions: 10 μM for 24 hours prior to 2 kJ/m2 UVB; measured 24 hours later; relative to untreated UVB cells
# Experimental: In brief, MM1418-C1 lightly pigmented melanoma cells or human primary melanocytes were grown in 24 well culture plates and treated with 10 μM
# RSKAKNPLYRRRRRRRRR (“IK-3”) for 24 hours prior to being exposed to 2 kJ/m2 UVB radiation. Controls (not treated with RSKAKNPLYRRRRRRRRR) labelled “Con” and “UVB”, respectively, were exposed to either 0 or 2 KJ/m2 UVB radiation. Cell groups were returned to the incubator for 24 hours and then the levels of melanin and protein in the cells were measured spectrophotometrically. In each experiment triplicate samples were measured. Data shown in FIG. 19 indicate the average values+SEM (μg melanin/mg cell protein) exposed to 0 or 2 KJ/m2 UVB which had been pre-treated with 0 or 10 μM of RSKAKNPLYRRRRRRRRR 24 hours prior to being exposed to UVB radiation. The t-test (2-tailed) was used to determine statistical significance, *p<0.05, ***p<0.001.
# Aquaporin 3 = Aquaporin 3 expression in keratinocytes exposed to HEV (blue) light; assay type: cell-based, human; conditions: NHEK exposed to HEV (blue) light; for increase in number of Aquaporin 3 positive cells: 470 nm, 3 days
# Experimental: The ability of the polypeptide RSKAKNPLYRRRRRRRRR, to reverse HEV light (‘blue light”) induced damage to human keratinocytes was examined. In brief, Human Epidermal Keratinocytes (NHEK) which are representative of the epidermis were exposed to HEV light in the presence of the polypeptide RSKAKNPLYRRRRRRRRR, or untreated in the presence of the polypeptide RSKAKNPLYRRRRRRRRR.
# The expression of Aquaporin 3 in cells (e.g. aquaporin 3 positive cells_was measured. Aquaporin 3 is found in the basolateral cell membrane and provides a pathway for water to exit cells. It is expressed in various tissues including the skin.
# The experiment was carried out in quintuplicate in the following conditions (n=5): • Untreated NHEK • NHEK+IK14800 2,5 μM • NHEK+IK14800 5 μM • NHEK+IK14800 10 μM • NHEK+Blue light • NHEK+Blue light+IK14800 2.5 μM • NHEK+Blue light+IK14800 5 μM • NHEK+Blue light+IK14800 10 μM
# Chronic blue light irradiation: one exposure per day for 3 days (220 joules—wavelength 470 nm). 4 days of treatment with the peptide (24 h before exposure to blue light and during the 3 days. The peptide was resuspended in milliQ water then diluted in the cell culture medium.
# After treatment, the cells were washed and fixed with Formalin.
# Finally, the nuclei were labelled with DAPI. The labelled proteins were observed and quantified by automated fluorescence microscopy Cellinsight CX7 High-Content Screening Platform (Thermofischer Data analysis
# A statistical analysis was performed using Mann-Whitney by Prism software. The significance is correlated with the p-value: ns=no significant, […], **p-value<0.01, ***p-value<0.001.).
# TGFβRII = TGFβRII expression by Western analysis in UV-irradiated dermal fibroblasts; assay type: cell-based, human; conditions: 1-10 μM added immediately following UV; 5 h post UV treatment; primary fibroblasts
# Experimental: Human skin dermal fibroblasts were cultured from keratome biopsies of healthy adult human skin. Cells were between passages three and six. For UV irradiation, subconfluent cells were washed once with phosphate-buffered saline (PBS) and irradiated with UV. Immediately following irradiation, negative control (vehicle) or 1 μM, 2.5 μM, 5 μM and 10 μM of IK34720 (“IK” in FIG. 3B, SEQ ID NO: 3) were added to the cell cultures.
# For Western analysis, nuclear extracts were prepared, membrane fractions were prepared and resolved on 8% SDS-polyacrylamide gel electrophoresis, transferred to polyvinylidene difluoride membrane, and reacted with primary antibodies. Blots were visualized and quantified.
# human skin explants = experiment: sunburn (apoptotic) cells in UV-irradiated human skin explants; assay type: cell-based
# Experimental: Skin explants were cultured irradiated and treated as described above for CPD, and subsequent to treatment were stained and quantified as described for Example 6.
# primary keratinocytes [2] = experiment: CPD detection by IHC in keratinocytes 3 h following UV-irradiation; assay type: cell-based
# Experimental: An in vitro assay was conducted allowing for densitometry analysis of CPD detection by IHC in keratinocytes 3 h following UV-irradiation in accordance with the following protocol.
# Keratinocytes were harvested and cultured as described above at Example 2. Samples were split into two groups, being UV irradiated (UVR) and non-UV irradiated (SHAM). UV-irradiation was performed by solar simulated UV-irradiation for cells, also as described above at Example 2. Irradiation solution was PBS containing 5 mM D-glucose. […]
# Harvested keratinocytes were plated on poly-D-lysine coated coverslips in 96 well plates and irradiated (or sham treated) as described above in at Example 2 in PBS containing 5 mM D-glucose. Keratinocytes were fixed 3 h after UV-irradiation. Immunohistochemistry and image analysis were performed as described previously (Gordon-Thomson et al., Photochem Photobiol Sci, 2012, 11 (12): 1837-47; Gupta et al., vide supra, Rybchyn M S et al., J Invest Dermatol, 2018; 138 (5): 1146-1156). Thymine dimers were detected using the anti-thymine dimer antibody (Sigma-Aldrich, Missouri, USA) at 10 μg/mL, and quantified as an index of CPD, as previously described (Douki T and Cadet J, Biochemistry, 2001, 40 (8): 2495-501).
# Following irradiation, keratinocytes were treated with either Calcitriol, vehicle control (Veh) or the polypeptide IK34720 (SEQ ID NO: 3; “IK”) IK14800; (RSKAKNPLYRRRRRRRRR), RSKAKNPLY (IK94000) and RRRRRRRRR (IK00900), at concentrations of 5 μM.
# primary keratinocytes [3] = experiment: ATP levels, CellTiter-Glo 2.0 Assay, after ssUV; assay type: cell-based; conditions: 1.5 hours after UVR; compared with Calcitriol
# Experimental: The influence of the polypeptide IK34720 (SEQ ID NO: 3) on intracellular ATP following UV exposure was assessed using the following protocol.
# Primary keratinocytes were harvested as described above in Example 2 and were either exposed to ssUV-irradiation (UVR), as described above in Example 2 or not irradiated (SHAM), in the presence or absence of Calcitriol (positive control) or polypeptide IK34720 (SEQ ID NO: 3; RSKAKNPLYRRRRRRRRR), at the concentrations described in Example 2.
# ATP levels were determined 1.5 hours after UVR using the CellTiter-Glo® 2.0 Assay (Promega, WI, USA) as described previously (Rybchyn et al., vide supra, 2017). All data in FIG. 4 is shown as mean+SD. *p<0.05, **p<0.01. Cells were prepared and irradiated as described above.
# [4] = 5 μM after ssUV, fixed 3 h after UV
sequence,measurement,setting,value
RSKAKNPLYRRRRRRRRR (not fully specified (some residues)) [IK34720],melanin content,[1],significantly decreased melanin content
same,increase in number of Aquaporin 3 positive cells,Aquaporin 3; 5 μM,+20%
same,increase in number of Aquaporin 3 positive cells,Aquaporin 3; 10 μM,+27%
same,basal expression of Aquaporin 3,"Aquaporin 3; 2.5, 5, 10 μM",restores the basal expression of Aquaporin 3 in a dose dependent manner
same,TGFβRII expression in UV treated cells,TGFβRII,restored TGFβRII expression
same,number of apoptotic cells,"human skin explants; 50 μM and 250 μM, 3 hrs and 24 hrs post UV-irradiation",reduces the number of apoptotic cells
same,number of apoptotic cells,"human skin explants; 80 μM, 400 μM and 800 μM, following UV-irradiation, data not shown",statistically significantly reduces the number of apoptotic cells
same,number of apoptotic cells,"human skin explants; 500 μM, 3 hrs and 24 hrs post UV-irradiation",statistically significantly reduces the number of apoptotic cells
same,CPD levels compared to vehicle-treated UV-irradiated keratinocytes,primary keratinocytes [2]; [4],statistically significant (*p<0.05) reduction in CPD levels
same,reduction in CPD levels compared to Calcitriol,primary keratinocytes [2]; [4],comparable reduction in CPD levels to keratinocytes treated with Calcitriol
same,"inhibition of CPD formation (average intensity of CPD staining) compared to 1,25D","primary keratinocytes [2]; 10 μM, FIG. 8B","more effective at inhibiting CPD formation than the positive control 1,25D"
same,"CPD levels, dose response","primary keratinocytes [2]; 0.5, 1, 2.5 or 5 μM after ssUV, fixed 3 h after UV",decreases CPD levels in primary keratinocytes exposed to solar simulated UV-irradiation in a dose dependent manner
same,ATP levels,primary keratinocytes [3],enhanced the ATP levels
